In US10597375B2, “Halogen-substituted heterocyclic compound” (UBE INDUSTRIES, LTD., priority 2012, dated 2020):

Legend:
[1] = system: LPA-induced histamine release; test: LPA-induced histamine release test in mouse; format: in vivo; conditions: male CD1 mice; oral dose of 10 mg/kg; LPA 300 μg/mouse via tail vein 4 hours after administration; blood 2 minutes after LPA; read-out: efficacy rate (rate of individuals which showed the inhibition rate of 80% or more of plasma histamine)
Experimental: LPA-Induced Histamine Release Test in Mouse
LPA-induced histamine release test in mouse was carried out according to a method by Swaney et al. (The Journal of Pharmacology and Experimental Therapeutics, 336 (2011), pages 693-700). The test compound was suspended in 0.5% methylcellulose solution (133-14255, Wako), and orally administered to male CD1 mice (body weight: 30 to 40 g, supplied by Charles River Laboratories Japan) at a dose of 10 mL/kg. 4 hours after administration, LPA (857130P, Avanti) dissolved in a 0.1% BSA-containing PBS was administered via the tail vein (300 μg/mouse). Immediately, the mouse was anesthetized with isoflurane, and blood was collected via a vein 2 minutes after the administration of LPA. The blood was put into a test tube containing EDTA, and centrifuged at 4° C., 2,000×g, for 10 minutes to obtain the plasma.
The histamine concentration in the plasma was measured by EIA kit (62HTMPEB, Cisbio Bioassays).

human LPA1 receptor = target: T1, human LPA1 receptor (Homo sapiens, UniProt Q92633); test: Binding test of GTPγS to LPA1 receptor; format: biochemical; conditions: membrane fraction of RH 7777 cells expressed with human LPA1 receptor; LPA 100 nM; read-out: IC50: concentration of the test compound which inhibits the binding of LPA1 receptor and [35S]GTPγS by 50%
T1 construct: purchased ChanTest A324; host or cells: RH 7777 cells (recombinant expression; membrane fraction)
T1 sequence (Q92633 whole entry): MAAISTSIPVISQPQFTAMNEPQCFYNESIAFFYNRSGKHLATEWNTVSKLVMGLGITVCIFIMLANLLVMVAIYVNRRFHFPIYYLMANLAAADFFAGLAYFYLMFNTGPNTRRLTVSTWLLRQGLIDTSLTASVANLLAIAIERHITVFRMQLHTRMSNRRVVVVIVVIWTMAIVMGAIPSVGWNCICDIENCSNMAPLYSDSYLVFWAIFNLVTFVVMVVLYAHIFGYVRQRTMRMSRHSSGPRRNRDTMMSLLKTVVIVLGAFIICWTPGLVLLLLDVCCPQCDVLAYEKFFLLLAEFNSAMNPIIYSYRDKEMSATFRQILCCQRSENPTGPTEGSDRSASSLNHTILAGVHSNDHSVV
Experimental: Binding test of GTPγS to LPA1 receptor
5 μg of the membrane fraction of RH 7777 cells expressed with human LPA1 receptor (A324, ChanTest) was suspended in a reaction buffer (20 mM HEPES, 100 mM NaCl, 10 mM MgCl2, 10 μM GDP, 5 μg saponin, 0.2% BSA, 0.1 nM [^35S]GTPγS (NEG030X, Perkin Elmer), pH 7.4), and the test compound dissolved in DMSO in various concentrations was added. After preincubation at 30° C. for 15 minutes, LPA (L7260, Sigma, the final concentration of 100 nM) was added, and the suspension was incubated at 30° C. for 30 minutes. The membrane fraction was collected onto a glass fiber filter (GF/B, Whatman) by using a cell harvester (M30, Brandel), and washed with a 10 mM phosphate buffer (pH 7.4). The radioactivity of the membrane fraction was measured using a liquid scintillation analyzer (2900TR, Packard) and the concentration of the test compound which inhibits the binding of LPA1 receptor and [^35S]GTPγS by 50%, (1050) was determined by non-linear regression analysis using EXSAS (version 7.6.0, Arm Systex).

[2] = system: A2058 human melanoma cells; test: Cell migration test (LPA-induced, Chemo-Tx); format: cell-based; conditions: LPA 100 nM, 3 hours, read-out: IC50: concentration of the test compound which inhibits the cell migration activity of LPA by 50%
Outline: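 A2058 cells, serum-starved 24 h, pretreated 15 min at 37° C with compound (0.5% DMSO final). Migration over 3 h at 37° C through fibronectin-coated filters toward 100 nM LPA (final). Migrated cells stained, absorbance at 570 nm; IC50 from non-linear regression.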

| Compound | responders at 10 mg/kg [1] | IC50 (human LPA1 receptor) | IC50 [2] |
| --- | --- | --- | --- |
| C[C@@H](OC(=O)Nc1cc(Cl)sc1-c1ccc(-c2ccc(C3(C(=O)O)CC3)cc2)cc1)c1ccccc1Cl [I-52, (R)-1-{4′-[5-Chloro-3-({[1-(2-chlorophenyl)ethoxy]carbonyl}amino)thiophen-2-yl]-[1,1′-biphenyl]-4-yl}cyclopropanecarboxylic acid] | ≥ 50% | ≤ 200 nM | ≤ 200 nM |
| C[C@@H](OC(=O)Nc1cc(Cl)sc1-c1ccc(-c2ccc(C3(C(=O)O)CC3)cc2)cc1)c1ccc(Cl)cc1 [I-56, (R)-1-{4′-[5-Chloro-3-({[1-(4-chlorophenyl)ethoxy]carbonyl}amino)thiophen-2-yl]-[1,1′-biphenyl]-4-yl}cyclopropanecarboxylic acid] | ≥ 50% | ≤ 200 nM | ≤ 200 nM |
| Cc1ccccc1[C@@H](C)OC(=O)Nc1cc(Cl)sc1-c1ccc(-c2ccc(C3(C(=O)O)CC3)cc2)cc1 [I-60, (R)-1-{4′-[5-Chloro-3-({[1-(o-tolyl)ethoxy]carbonyl}amino)thiophen-2-yl]-[1,1′-biphenyl]-4-yl}cyclopropanecarboxylic acid] | ≥ 50% | ≤ 200 nM | ≤ 200 nM |
| C[C@@H](OC(=O)Nc1cc(F)sc1-c1ccc(-c2ccc(C3(C(=O)O)CC3)cc2)cc1)c1ccccc1 [I-100, (R)-1-[4′-(5-Fluoro-3-{[(1-phenylethoxy)carbonyl]amino}thiophen-2-yl)-[1,1′-biphenyl]-4-yl]cyclopropanecarboxylic acid] | ≥ 50% | ≤ 200 nM | ≤ 200 nM |
| C[C@@H](OC(=O)Nc1cc(F)sc1-c1ccc(-c2ccc(C3(C(=O)O)CC3)cc2)cc1)c1ccccc1F [I-104, (R)-1-{4′-[5-Fluoro-3-({[1-(2-fluorophenyl)ethoxy]carbonyl}amino)thiophen-2-yl]-[1,1′-biphenyl]-4-yl}cyclopropanecarboxylic acid] | ≥ 50% | ≤ 200 nM | ≤ 200 nM |
| C[C@@H](OC(=O)Nc1cc(F)sc1-c1ccc(-c2ccc(C3(C(=O)O)CC3)cc2)cc1)c1ccc(F)cc1 [I-112, (R)-1-{4′-[5-Fluoro-3-({[1-(4-fluorophenyl)ethoxy]carbonyl}amino)thiophen-2-yl]-[1,1′-biphenyl]-4-yl}cyclopropanecarboxylic acid] | ≥ 50% | ≤ 200 nM | ≤ 200 nM |
| C[C@@H](OC(=O)Nc1cc(F)sc1-c1ccc(-c2ccc(C3(C(=O)O)CC3)cc2)cc1)c1ccccc1Cl [I-122, (R)-1-{4′-[3-({[1-(2-Chlorophenyl)ethoxy]carbonyl}amino)-5-fluorothiophen-2-yl]-[1,1′-biphenyl]-4-yl}cyclopropanecarboxylic acid] | ≥ 50% | ≤ 200 nM | ≤ 200 nM |
| C[C@@H](OC(=O)Nc1cc(F)sc1-c1ccc(-c2ccc(C3(C(=O)O)CC3)cc2)cc1)c1ccc(Cl)cc1 [I-126, (R)-1-{4′-[3-({[1-(4-Chlorophenyl)ethoxy]carbonyl}amino)-5-fluorothiophen-2-yl]-[1,1′-biphenyl]-4-yl}cyclopropanecarboxylic acid] | ≥ 50% | ≤ 200 nM | ≤ 200 nM |
| C[C@@H](OC(=O)Nc1cc(F)sc1-c1ccc(-c2ccc(C3(C(=O)O)CC3)cc2)cc1)c1ccc(F)cc1Cl [I-152, (R)-1-{4′-[3-({[1-(2-Chloro-4-fluorophenyl)ethoxy]carbonyl}amino)-5-fluorothiophen-2-yl]-[1,1′-biphenyl]-4-yl}cyclopropanecarboxylic acid] | ≥ 50% | ≤ 200 nM | ≤ 200 nM |
